Data: patent publication US12102089B2, “Method for inactivating mold spores” (DSM IP ASSETS B.V., priority 2017, dated 2024)

Tested on: Aspergillus niger ATCC 9029AA
Test: Heat treatment of Aspergillus niger ATCC 9029AA spores in ice tea with natamycin, visual growth
Format: cell-based
Set-up: key to growth or no growth: growth (+); no growth (−)
Procedure: Commercially available ice tea (Lipton, peach flavor, non-carbonated, 1.5 L) was adjusted to high water hardness by adding 1 ml of a solution of 39 g CaCl2 and 27 g MgCl2 added to 934 g water. ⅓ of this ice tea preparation (the pH of which was 3.15) was left as-such, ⅓ of the preparation was enriched with 5 ppm natamycin and ⅓ of the preparation was enriched with 10 ppm natamycin. Samples of 5 ml were made from each preparation in 15 ml sterile plastic tubes. Of each preparation 8 samples were pre-heated to the desired pasteurization temperature using a water bath. Temperatures used were RT, 60, 65, 70, 75, 80, 85 and 90° C. When the desired temperature was reached, 100 μl of a 2500 spores/ml spore suspension of Aspergillus niger ATCC 9029AA was added to each tube. Subsequently, the samples were kept for 30 seconds at the temperature in question in the water bath. Next, the samples were cooled on ice to a temperature of 25° C. Samples were incubated at 25° C. and visually examined for growth (formation of mold flakes or turbidity) for two months. Additionally, samples were enumerated according to ISO protocol 21527-1.2008 on day 0 (before heat treatment) and day 1 (after heat treatment) to count immediate loss of viability. Enumeration was repeated after 1 month when samples remained free from visual mold growth; most counts were reduced to <10 after heat treatment, but were still able to grow. For the results, see Table 1.

With `C[C@@H]1C/C=C/C=C/C=C/C=C/[C@H](O[C@@H]2O[C@H](C)[C@@H](O)[C@H](N)[C@@H]2O)C[C@@H]2O[C@](O)(C[C@@H](O)C[C@H]3O[C@@H]3/C=C/C(=O)O1)C[C@H](O)[C@H]2C(=O)O` [natamycin] the “growth or no growth” value (60°C, 5 ppm, day 1) was “−”, the “growth or no growth” value (60°C, 5 ppm, day 2) was “−” and the “growth or no growth” value (60°C, 5 ppm, day 3) was “−”. For the same compound, the “growth or no growth” value (60°C, 5 ppm, day 4) was “−”, the “growth or no growth” value (60°C, 5 ppm, day 5) was “−” and the “growth or no growth” value (60°C, 5 ppm, day 6) was “−”. The “growth or no growth” value (60°C, 5 ppm, day 7) was “+”, the “growth or no growth” value (60°C, 5 ppm, day 8) was “+” and the “growth or no growth” value (60°C, 5 ppm, day 9) was “+”. For the same compound, the “growth or no growth” value (60°C, 5 ppm, day 10) was “+”, the “growth or no growth” value (60°C, 5 ppm, day 11) was “+” and the “growth or no growth” value (60°C, 5 ppm, day 12) was “+”. For the same compound, the “growth or no growth” value (60°C, 5 ppm, day 13) was “+”, the “growth or no growth” value (60°C, 5 ppm, day 14) was “+” and the “growth or no growth” value (60°C, 5 ppm, day 15) was “+”. The “growth or no growth” value (60°C, 5 ppm, day 16) was “+”, the “growth or no growth” value (60°C, 5 ppm, day 17) was “+” and the “growth or no growth” value (60°C, 5 ppm, day 50) was “+”. The “growth or no growth” value (60°C, 10 ppm, day 1) was “−”, the “growth or no growth” value (60°C, 10 ppm, day 2) was “−” and the “growth or no growth” value (60°C, 10 ppm, day 3) was “−”. For the same compound, the “growth or no growth” value (60°C, 10 ppm, day 4) was “−”, the “growth or no growth” value (60°C, 10 ppm, day 5) was “−” and the “growth or no growth” value (60°C, 10 ppm, day 6) was “−”. The “growth or no growth” value (60°C, 10 ppm, day 7) was “−”, the “growth or no growth” value (60°C, 10 ppm, day 8) was “−” and the “growth or no growth” value (60°C, 10 ppm, day 9) was “−”. The “growth or no growth” value (60°C, 10 ppm, day 10) was “+”, the “growth or no growth” value (60°C, 10 ppm, day 11) was “+” and the “growth or no growth” value (60°C, 10 ppm, day 12) was “+”. For the same compound, the “growth or no growth” value (60°C, 10 ppm, day 13) was “+”, the “growth or no growth” value (60°C, 10 ppm, day 14) was “+” and the “growth or no growth” value (60°C, 10 ppm, day 15) was “+”. For the same compound, the “growth or no growth” value (60°C, 10 ppm, day 16) was “+”, the “growth or no growth” value (60°C, 10 ppm, day 17) was “+” and the “growth or no growth” value (60°C, 10 ppm, day 50) was “+”. For the same compound, the “growth or no growth” value (65°C, 5 ppm, day 1) was “−”, the “growth or no growth” value (65°C, 5 ppm, day 2) was “−” and the “growth or no growth” value (65°C, 5 ppm, day 3) was “−”. The “growth or no growth” value (65°C, 5 ppm, day 4) was “−”, the “growth or no growth” value (65°C, 5 ppm, day 5) was “−” and the “growth or no growth” value (65°C, 5 ppm, day 6) was “−”. The “growth or no growth” value (65°C, 5 ppm, day 7) was “−”, the “growth or no growth” value (65°C, 5 ppm, day 8) was “−” and the “growth or no growth” value (65°C, 5 ppm, day 9) was “−”. The “growth or no growth” value (65°C, 5 ppm, day 10) was “−”, the “growth or no growth” value (65°C, 5 ppm, day 11) was “−” and the “growth or no growth” value (65°C, 5 ppm, day 12) was “−”. The “growth or no growth” value (65°C, 5 ppm, day 13) was “−”, the “growth or no growth” value (65°C, 5 ppm, day 14) was “−” and the “growth or no growth” value (65°C, 5 ppm, day 15) was “−”. For the same compound, the “growth or no growth” value (65°C, 5 ppm, day 16) was “−”, the “growth or no growth” value (65°C, 5 ppm, day 17) was “−” and the “growth or no growth” value (65°C, 5 ppm, day 50) was “−”. For the same compound, the “growth or no growth” value (65°C, 10 ppm, day 1) was “−”, the “growth or no growth” value (65°C, 10 ppm, day 2) was “−” and the “growth or no growth” value (65°C, 10 ppm, day 3) was “−”. For the same compound, the “growth or no growth” value (65°C, 10 ppm, day 4) was “−”, the “growth or no growth” value (65°C, 10 ppm, day 5) was “−” and the “growth or no growth” value (65°C, 10 ppm, day 6) was “−”. For the same compound, the “growth or no growth” value (65°C, 10 ppm, day 7) was “−”, the “growth or no growth” value (65°C, 10 ppm, day 8) was “−” and the “growth or no growth” value (65°C, 10 ppm, day 9) was “−”. For the same compound, the “growth or no growth” value (65°C, 10 ppm, day 10) was “−”, the “growth or no growth” value (65°C, 10 ppm, day 11) was “−” and the “growth or no growth” value (65°C, 10 ppm, day 12) was “−”. For the same compound, the “growth or no growth” value (65°C, 10 ppm, day 13) was “−”, the “growth or no growth” value (65°C, 10 ppm, day 14) was “−” and the “growth or no growth” value (65°C, 10 ppm, day 15) was “−”. The “growth or no growth” value (65°C, 10 ppm, day 16) was “−”, the “growth or no growth” value (65°C, 10 ppm, day 17) was “−” and the “growth or no growth” value (65°C, 10 ppm, day 50) was “−”. The germination (70° C., in the presence of natamycin) was “no germination occurred”, the “growth or no growth” value (70°C, 5 ppm, day 1) was “−” and the “growth or no growth” value (70°C, 5 ppm, day 2) was “−”. The “growth or no growth” value (70°C, 5 ppm, day 3) was “−”, the “growth or no growth” value (70°C, 5 ppm, day 4) was “−” and the “growth or no growth” value (70°C, 5 ppm, day 5) was “−”. For the same compound, the “growth or no growth” value (70°C, 5 ppm, day 6) was “−”, the “growth or no growth” value (70°C, 5 ppm, day 7) was “−” and the “growth or no growth” value (70°C, 5 ppm, day 8) was “−”. The “growth or no growth” value (70°C, 5 ppm, day 9) was “−”, the “growth or no growth” value (70°C, 5 ppm, day 10) was “−” and the “growth or no growth” value (70°C, 5 ppm, day 11) was “−”. For the same compound, the “growth or no growth” value (70°C, 5 ppm, day 12) was “−”, the “growth or no growth” value (70°C, 5 ppm, day 13) was “−” and the “growth or no growth” value (70°C, 5 ppm, day 14) was “−”. For the same compound, the “growth or no growth” value (70°C, 5 ppm, day 15) was “−”, the “growth or no growth” value (70°C, 5 ppm, day 16) was “−” and the “growth or no growth” value (70°C, 5 ppm, day 17) was “−”. The “growth or no growth” value (70°C, 5 ppm, day 50) was “−”, the “growth or no growth” value (70°C, 10 ppm, day 9) was “−” and the “growth or no growth” value (70°C, 10 ppm, day 10) was “−”. The “growth or no growth” value (70°C, 10 ppm, day 11) was “−”, the “growth or no growth” value (70°C, 10 ppm, day 12) was “−” and the “growth or no growth” value (70°C, 10 ppm, day 13) was “−”. For the same compound, the “growth or no growth” value (70°C, 10 ppm, day 14) was “−”, the “growth or no growth” value (70°C, 10 ppm, day 15) was “−” and the “growth or no growth” value (70°C, 10 ppm, day 16) was “−”. The “growth or no growth” value (70°C, 10 ppm, day 17) was “−”, the “growth or no growth” value (70°C, 10 ppm, day 50) was “−” and the germination (RT and 60° C., 5 ppm natamycin) was “delayed germination”. The germination (RT and 60° C., 10 ppm natamycin) was “longer delay”.
